“And” between values parts separate entries of the source, which are not always exact repeats. Equal entries are not always repeated.
Experiment: xn = mol fraction of the nth substance listed

NCCN + OCCO
viscosity [mPa·s], 101 kPa
Conditions | x1 = 0.0872 | x1 = 0.17 | x1 = 0.2572 | x1 = 0.3496 | x1 = 0.3568 | x1 = 0.4448 | x1 = 0.547 | x1 = 0.6556 | x1 = 0.7623 | x1 = 0.8792
293.15 K | 27.84 | 34.57 | 40.29 | 40.83 | – | 34.13 | 21.71 | 11.54 | 5.764 | 2.87
298.15 K | 22.44 | 27.12 | 31.13 | 31.21 | – | 26.03 | 16.95 | 9.305 | 4.829 | 2.474
303.15 K | 18.11 | 21.75 | 24.48 | 24.17 | 22.85 | 20.15 | – | 7.547 | 4.093 | 2.165
308.15 K | 14.79 | 17.62 | 19.51 | 19.04 | – | 15.91 | 10.76 | – | 3.514 | 1.914
313.15 K | 12.24 | 14.39 | 15.71 | 15.26 | – | 12.72 | 8.758 | 5.248 | 3.031 | 1.715
318.15 K | 10.22 | 11.87 | 12.84 | 12.3 | – | 10.35 | 7.228 | 4.445 | 2.644 | 1.537
323.15 K | 8.597 | 9.828 | 10.57 | 10.09 | – | 8.503 | 6.053 | 3.8 | 2.317 | 1.383

CCCC[n+]1ccn(C)c1.[Cl][Al-]([Cl])([Cl])[Cl] + [Al+3].[Cl-].[Cl-].[Cl-]
viscosity [mPa·s], 101 kPa
Conditions | 293.15 K | 298.15 K | 303.15 K | 308.15 K | 313.15 K | 318.15 K | 323.15 K
x2 = 0.46 | 30.8 | 27 | 24.1 | 21 | 18.4 | 16.4 | 14.8
x2 = 0.57 | 31.4 | 27.3 | 23.7 | 20.8 | 18.3 | 16.4 | 14.7

CC(C)(C)O + c1ccccc1
Conditions | viscosity [mPa·s]
298.15 K, 101 kPa, x1 = 0.0105 | 0.5986
298.15 K, 101 kPa, x1 = 0.02032 | 0.5966
298.15 K, 101 kPa, x1 = 0.02705 | 0.5958
298.15 K, 101 kPa, x1 = 0.03393 | 0.5954
298.15 K, 101 kPa, x1 = 0.04376 | 0.5954
298.15 K, 101 kPa, x1 = 0.05002 | 0.5954
298.15 K, 101 kPa, x1 = 0.06281 | 0.5966
298.15 K, 101 kPa, x1 = 0.07569 | 0.598
298.15 K, 101 kPa, x1 = 0.08395 | 0.5995
298.15 K, 101 kPa, x1 = 0.1597 | 0.6201
298.15 K, 101 kPa, x1 = 0.2472 | 0.6577
298.15 K, 101 kPa, x1 = 0.5139 | 0.886
298.15 K, 101 kPa, x1 = 0.9027 | 2.579
303 K, 101.3 kPa, x2 = 0.1001 | 2.487
303 K, 101.3 kPa, x2 = 0.2137 | 1.787
303 K, 101.3 kPa, x2 = 0.3033 | 1.395
303 K, 101.3 kPa, x2 = 0.4117 | 1.08
303 K, 101.3 kPa, x2 = 0.5129 | 0.8736
303 K, 101.3 kPa, x2 = 0.6126 | 0.7351
303 K, 101.3 kPa, x2 = 0.7187 | 0.6441
303 K, 101.3 kPa, x2 = 0.8046 | 0.6103
303 K, 101.3 kPa, x2 = 0.8998 | 0.5822
303.2 K, 101.33 kPa, x2 = 0.05 | 2.528
303.2 K, 101.33 kPa, x2 = 0.1 | 1.968
303.2 K, 101.33 kPa, x2 = 0.15 | 1.598
303.2 K, 101.33 kPa, x2 = 0.2 | 1.356
303.2 K, 101.33 kPa, x2 = 0.3 | 1.06
303.2 K, 101.33 kPa, x2 = 0.4 | 0.87
303.2 K, 101.33 kPa, x2 = 0.5 | 0.753
303.2 K, 101.33 kPa, x2 = 0.6 | 0.671
303.2 K, 101.33 kPa, x2 = 0.7 | 0.609
303.2 K, 101.33 kPa, x2 = 0.8 | 0.57
303.2 K, 101.33 kPa, x2 = 0.85 | 0.559
303.2 K, 101.33 kPa, x2 = 0.9 | 0.553
303.2 K, 101.33 kPa, x2 = 0.95 | 0.552

CCCBr + c1ccccc1
308.15 K, 101 kPa
Conditions | viscosity [mPa·s]
x2 = 0.1021 | 0.4369
x2 = 0.2992 | 0.4373
x2 = 0.3987 | 0.4413
x2 = 0.5041 | 0.4461
x2 = 0.6028 | 0.4525
x2 = 0.7033 | 0.4619
x2 = 0.8414 | 0.478
x2 = 0.8979 | 0.4898

CCCC(=O)OC + c1ccccc1
viscosity [mPa·s], 101 kPa
Conditions | x2 = 0.1316 | x2 = 0.1994 | x2 = 0.2999 | x2 = 0.3974 | x2 = 0.5001 | x2 = 0.6023 | x2 = 0.7044 | x2 = 0.7999 | x2 = 0.8939
298.15 K | 0.536 | 0.534 | 0.535 | 0.536 | 0.54 | 0.544 | 0.551 | 0.561 | 0.575
313.15 K | 0.451 | 0.45 | 0.45 | 0.451 | 0.453 | 0.456 | 0.46 | 0.466 | 0.476

CCNCC + c1ccccc1
viscosity, 101.33 kPa
Conditions | x1 = 0.2 | x1 = 0.4 | x1 = 0.5 | x1 = 0.6 | x1 = 0.8
293.15 K | 0.522 mPa·s and 0.522 mPa·s | 0.44 mPa·s | 0.411 mPa·s and 0.411 mPa·s | 0.387 mPa·s | 0.349 mPa·s
303.15 K | 0.463 mPa·s | 0.393 mPa·s | 0.367 mPa·s | 0.348 mPa·s | 0.314 mPa·s
308.15 K | 0.438 mPa·s and 0.438 mPa·s | 0.374 mPa·s | 0.35 mPa·s and 0.35 mPa·s | 0.333 mPa·s | 0.298 mPa·s

ClCc1ccccc1 + c1ccccc1
viscosity [mPa·s], 101 kPa
Conditions | x2 = 0.1988 | x2 = 0.3583 | x2 = 0.489 | x2 = 0.5982 | x2 = 0.6907 | x2 = 0.7701 | x2 = 0.839 | x2 = 0.8993 | x2 = 0.9526
298.15 K | 0.9856 | 0.8952 | 0.8251 | 0.7742 | 0.7152 | 0.6823 | 0.6598 | 0.6485 | 0.6042
303.15 K | 0.9782 | 0.8724 | 0.8024 | 0.7153 | 0.6942 | 0.6324 | 0.6248 | 0.5923 | 0.5634
308.15 K | 0.9265 | 0.8258 | 0.7865 | 0.7026 | 0.6294 | 0.6058 | 0.5861 | 0.5592 | 0.5389
313.15 K | 0.9357 | 0.8562 | 0.7548 | 0.6994 | 0.6241 | 0.5826 | 0.5742 | 0.5486 | 0.5095

Nc1ccccc1 + c1ccccc1
Conditions | viscosity [mPa·s]
298.15 K, 101 kPa, x1 = 0.1039 | 0.71
298.15 K, 101 kPa, x1 = 0.2282 | 0.83
298.15 K, 101 kPa, x1 = 0.3729 | 1.1
298.15 K, 101 kPa, x1 = 0.4341 | 1.211
298.15 K, 101 kPa, x1 = 0.5562 | 1.483
298.15 K, 101 kPa, x1 = 0.6562 | 1.803
298.15 K, 101 kPa, x1 = 0.7656 | 2.217
298.15 K, 101 kPa, x1 = 0.8661 | 2.767
298.15 K, 101 kPa, x1 = 0.9088 | 3.029
298.15 K, 101 kPa, x2 = 0.01 | 3.64
298.15 K, 101 kPa, x2 = 0.026 | 3.555
298.15 K, 101 kPa, x2 = 0.12 | 2.895
298.15 K, 101 kPa, x2 = 0.205 | 2.461
298.15 K, 101 kPa, x2 = 0.304 | 2.022
298.15 K, 101 kPa, x2 = 0.39 | 1.67
298.15 K, 101 kPa, x2 = 0.468 | 1.448
298.15 K, 101 kPa, x2 = 0.52 | 1.307
298.15 K, 101 kPa, x2 = 0.626 | 1.1
298.15 K, 101 kPa, x2 = 0.662 | 1.056
298.15 K, 101 kPa, x2 = 0.794 | 0.861
298.15 K, 101 kPa, x2 = 0.896 | 0.714
298.15 K, 101.33 kPa, x1 = 0.2 | 0.78
298.15 K, 101.33 kPa, x1 = 0.5 | 1.277
298.15 K, 101.33 kPa, x2 = 0.25 | 2.458
298.15 K, 101.33 kPa, x2 = 0.4 | 1.764
298.15 K, 101.33 kPa, x2 = 0.5 | 1.427
303.15 K, 101 kPa, x1 = 0.1039 | 0.657
303.15 K, 101 kPa, x1 = 0.2282 | 0.781
303.15 K, 101 kPa, x1 = 0.3729 | 0.965
303.15 K, 101 kPa, x1 = 0.4341 | 1.093
303.15 K, 101 kPa, x1 = 0.5562 | 1.371
303.15 K, 101 kPa, x1 = 0.6562 | 1.648
303.15 K, 101 kPa, x1 = 0.7656 | 1.991
303.15 K, 101 kPa, x1 = 0.8661 | 2.495
303.15 K, 101 kPa, x1 = 0.9088 | 2.745
308.15 K, 101 kPa, x1 = 0.1019 | 0.5981
308.15 K, 101 kPa, x1 = 0.1039 | 0.589
308.15 K, 101 kPa, x1 = 0.1492 | 0.6532
308.15 K, 101 kPa, x1 = 0.2282 | 0.736
308.15 K, 101 kPa, x1 = 0.2326 | 0.728
308.15 K, 101 kPa, x1 = 0.267 | 0.7545
308.15 K, 101 kPa, x1 = 0.3462 | 0.8563
308.15 K, 101 kPa, x1 = 0.3729 | 0.91
308.15 K, 101 kPa, x1 = 0.4341 | 1.012
308.15 K, 101 kPa, x1 = 0.4911 | 1.115
308.15 K, 101 kPa, x1 = 0.5562 | 1.224
308.15 K, 101 kPa, x1 = 0.6312 | 1.492
308.15 K, 101 kPa, x1 = 0.6562 | 1.476
308.15 K, 101 kPa, x1 = 0.68 | 1.59
308.15 K, 101 kPa, x1 = 0.7615 | 1.835
308.15 K, 101 kPa, x1 = 0.7656 | 1.79
308.15 K, 101 kPa, x1 = 0.8499 | 2.128
308.15 K, 101 kPa, x1 = 0.8661 | 2.179
308.15 K, 101 kPa, x1 = 0.9088 | 2.443
313.15 K, 101 kPa, x1 = 0.1039 | 0.562
313.15 K, 101 kPa, x1 = 0.2282 | 0.689
313.15 K, 101 kPa, x1 = 0.3729 | 0.842
313.15 K, 101 kPa, x1 = 0.4341 | 0.928
313.15 K, 101 kPa, x1 = 0.5562 | 1.124
313.15 K, 101 kPa, x1 = 0.6562 | 1.337
313.15 K, 101 kPa, x1 = 0.7656 | 1.587
313.15 K, 101 kPa, x1 = 0.8661 | 1.93
313.15 K, 101 kPa, x1 = 0.9088 | 2.103
323.15 K, 101.33 kPa, x1 = 0.2 | 0.541
323.15 K, 101.33 kPa, x1 = 0.5 | 0.792

— the CheMixHub viscosity set
